Measured values from PMC11822212, “High-throughput screening identifies Aurora kinase B as a critical therapeutic target for Merkel cell carcinoma” (Nature Communications, 2025).
Counter-ions that a name gives are not always drawn. Like-named read-outs stand apart in the source and are kept apart here.

Experiments:
WAGA cells (VP-MCC) = assay: qHTS cell viability (CellTiter-Glo, 72 h; primary and follow-up small molecule screen); type: cell-based, human
NIH-3T3 cells = assay: qHTS cell viability (CellTiter-Glo, 72 h; primary screen), control cell line; type: cell-based, mouse
MKL-1 cells (VP-MCC) = assay: qHTS cell viability (CellTiter-Glo, 72 h; primary and follow-up small molecule screen); type: cell-based, human
MKL-2 cells (VP-MCC) = assay: as above; type: cell-based, human
HACAT cells = assay: qHTS cell viability (CellTiter-Glo, 72 h; primary screen), control cell line; type: cell-based, human
CRL-7250 cells = assay: as above; type: cell-based
HEK293T cells = assay: as above; type: cell-based, human
UISO cells (VN-MCC) = assay: qHTS cell viability (CellTiter-Glo, 72 h; primary and follow-up small molecule screen); type: cell-based, human
MCC13 cells (VN-MCC) = assay: as above; type: cell-based, human
MCC26 cells (VN-MCC) = assay: as above; type: cell-based, human
[1] = area under the dose-response curve, WAGA cells, AUC<450 = reduced viability
[2] = area under the dose-response curve, NIH3T3 control cells, AUC<450 = reduced viability
[3] = area under the dose-response curve, MKL-1 cells, AUC<450 = reduced viability
[4] = area under the dose-response curve, MKL-2 cells, AUC<450 = reduced viability
[5] = area under the dose-response curve, HACAT control cells, AUC<450 = reduced viability
[6] = area under the dose-response curve, CRL7250 control cells, AUC<450 = reduced viability
[7] = area under the dose-response curve, HEK293T control cells, AUC<450 = reduced viability
[8] = area under the dose-response curve, UISO cells, AUC<450 = reduced viability
[9] = area under the dose-response curve, MCC13 cells, AUC<450 = reduced viability
[10] = area under the dose-response curve, MCC26 cells, AUC<450 = reduced viability

C[C@H](CCC(=O)O)[C@H]1CC[C@H]2[C@@H]3[C@H](O)C[C@@H]4C[C@H](O)CC[C@]4(C)[C@H]3CC[C@]12C [Chenodeoxycholic acid]
WAGA_AUC (WAGA cells (VP-MCC); [1]): 440.562
NIH3T3_AUC (NIH-3T3 cells; [2]): 479.384
MKL1_AUC (MKL-1 cells (VP-MCC); [3]): 439.87
MKL2_AUC (MKL-2 cells (VP-MCC); [4]): 427.388
HACAT_AUC (HACAT cells; [5]): 475.403
CRL7250_AUC (CRL-7250 cells; [6]): 462.86
HEK293T_AUC (HEK293T cells; [7]): 474.014
UISO_AUC (UISO cells (VN-MCC); [8]): 483.595
MCC13_AUC (MCC13 cells (VN-MCC); [9]): 458.762
MCC26_AUC (MCC26 cells (VN-MCC); [10]): 489.842

O=c1cccc2n1C[C@@H]1CNC[C@H]2C1 [Cytisine]
Area under the dose-response curve (AUC) WAGA Replicate 1 (WAGA cells (VP-MCC)): 496.1
Area under the dose-response curve (AUC) WAGA Replicate 2 (WAGA cells (VP-MCC)): 525.9
Area under the dose-response curve (AUC) WAGA Replicate 3 (WAGA cells (VP-MCC)): 499.6
WAGA_AUC (WAGA cells (VP-MCC)): 346.525
NIH3T3_AUC (NIH-3T3 cells): 477.468
Area under the dose-response curve (AUC) MKL-1 Replicate 1 (MKL-1 cells (VP-MCC)): 469.7
Area under the dose-response curve (AUC) MKL-1 Replicate 2 (MKL-1 cells (VP-MCC)): 497.8
Area under the dose-response curve (AUC) MKL-1 Replicate 3 (MKL-1 cells (VP-MCC)): 481.7
MKL1_AUC (MKL-1 cells (VP-MCC)): 435.746
Area under the dose-response curve (AUC) MKL-2 Replicate 1 (MKL-2 cells (VP-MCC)): 465.6
Area under the dose-response curve (AUC) MKL-2 Replicate 2 (MKL-2 cells (VP-MCC)): 500.2
Area under the dose-response curve (AUC) MKL-2 Replicate 3 (MKL-2 cells (VP-MCC)): 495.6
MKL2_AUC (MKL-2 cells (VP-MCC)): 398.634
HACAT_AUC (HACAT cells): 465.853
CRL7250_AUC (CRL-7250 cells): 469.524
HEK293T_AUC (HEK293T cells): 476.432
Area under the dose-response curve (AUC) UISO Replicate 1 (UISO cells (VN-MCC)): 456.3
Area under the dose-response curve (AUC) UISO Replicate 2 (UISO cells (VN-MCC)): 469.0
Area under the dose-response curve (AUC) UISO Replicate 3 (UISO cells (VN-MCC)): 502.6
UISO_AUC (UISO cells (VN-MCC)): 498.318
Area under the dose-response curve (AUC) MCC13 Replicate 1 (MCC13 cells (VN-MCC)): 466.2
Area under the dose-response curve (AUC) MCC13 Replicate 2 (MCC13 cells (VN-MCC)): 472.1
Area under the dose-response curve (AUC) MCC13 Replicate 3 (MCC13 cells (VN-MCC)): 495.9
MCC13_AUC (MCC13 cells (VN-MCC)): 474.327
Area under the dose-response curve (AUC) MCC26 Replicate 1 (MCC26 cells (VN-MCC)): 425.8
Area under the dose-response curve (AUC) MCC26 Replicate 2 (MCC26 cells (VN-MCC)): 426.1
Area under the dose-response curve (AUC) MCC26 Replicate 3 (MCC26 cells (VN-MCC)): 461.0
MCC26_AUC (MCC26 cells (VN-MCC)): 479.664

CC(C)CN(C[C@@H](O)[C@H](Cc1ccccc1)NC(=O)O[C@H]1CO[C@H]2OCC[C@H]21)S(=O)(=O)c1ccc(N)cc1 [Darunavir]
WAGA_AUC (WAGA cells (VP-MCC)): 433.192
NIH3T3_AUC (NIH-3T3 cells): 481.353
MKL1_AUC (MKL-1 cells (VP-MCC)): 420.268
MKL2_AUC (MKL-2 cells (VP-MCC)): 413.603
HACAT_AUC (HACAT cells): 465.16
CRL7250_AUC (CRL-7250 cells): 469.055
HEK293T_AUC (HEK293T cells): 472.283
UISO_AUC (UISO cells (VN-MCC)): 505.158
MCC13_AUC (MCC13 cells (VN-MCC)): 471.675
MCC26_AUC (MCC26 cells (VN-MCC)): 501.486

CCCCCCCCCCCC1=C(O)C(=O)C=C(O)C1=O [Embelin]
WAGA_AUC (WAGA cells (VP-MCC); [1]): 416.987
Area under the dose-response curve (AUC) WAGA Replicate 1 (WAGA cells (VP-MCC); follow-up screen, WAGA, replicate 1): 543.3
Area under the dose-response curve (AUC) WAGA Replicate 2 (WAGA cells (VP-MCC); follow-up screen, WAGA, replicate 2): 384.9
Area under the dose-response curve (AUC) WAGA Replicate 3 (WAGA cells (VP-MCC); follow-up screen, WAGA, replicate 3): 441.0
NIH3T3_AUC (NIH-3T3 cells; [2]): 468.399
MKL1_AUC (MKL-1 cells (VP-MCC); [3]): 418.887
Area under the dose-response curve (AUC) MKL-1 Replicate 1 (MKL-1 cells (VP-MCC); follow-up screen, MKL-1, replicate 1): 561.5
Area under the dose-response curve (AUC) MKL-1 Replicate 2 (MKL-1 cells (VP-MCC); follow-up screen, MKL-1, replicate 2): 475.0
Area under the dose-response curve (AUC) MKL-1 Replicate 3 (MKL-1 cells (VP-MCC); follow-up screen, MKL-1, replicate 3): 443.8
MKL2_AUC (MKL-2 cells (VP-MCC); [4]): 427.936
Area under the dose-response curve (AUC) MKL-2 Replicate 1 (MKL-2 cells (VP-MCC); follow-up screen, MKL-2, replicate 1): 476.0
Area under the dose-response curve (AUC) MKL-2 Replicate 2 (MKL-2 cells (VP-MCC); follow-up screen, MKL-2, replicate 2): 454.8
Area under the dose-response curve (AUC) MKL-2 Replicate 3 (MKL-2 cells (VP-MCC); follow-up screen, MKL-2, replicate 3): 454.5
HACAT_AUC (HACAT cells; [5]): 451.959
CRL7250_AUC (CRL-7250 cells; [6]): 461.338
HEK293T_AUC (HEK293T cells; [7]): 470.759
UISO_AUC (UISO cells (VN-MCC); [8]): 474.744
Area under the dose-response curve (AUC) UISO Replicate 1 (UISO cells (VN-MCC); follow-up screen, UISO, replicate 1): 471.2
Area under the dose-response curve (AUC) UISO Replicate 2 (UISO cells (VN-MCC); follow-up screen, UISO, replicate 2): 418.0
Area under the dose-response curve (AUC) UISO Replicate 3 (UISO cells (VN-MCC); follow-up screen, UISO, replicate 3): 438.8
MCC13_AUC (MCC13 cells (VN-MCC); [9]): 489.799
Area under the dose-response curve (AUC) MCC13 Replicate 1 (MCC13 cells (VN-MCC); follow-up screen, MCC13, replicate 1): 496.2
Area under the dose-response curve (AUC) MCC13 Replicate 2 (MCC13 cells (VN-MCC); follow-up screen, MCC13, replicate 2): 470.6
Area under the dose-response curve (AUC) MCC13 Replicate 3 (MCC13 cells (VN-MCC); follow-up screen, MCC13, replicate 3): 448.5
MCC26_AUC (MCC26 cells (VN-MCC); [10]): 492.758
Area under the dose-response curve (AUC) MCC26 Replicate 1 (MCC26 cells (VN-MCC); follow-up screen, MCC26, replicate 1): 439.2
Area under the dose-response curve (AUC) MCC26 Replicate 2 (MCC26 cells (VN-MCC); follow-up screen, MCC26, replicate 2): 416.6
Area under the dose-response curve (AUC) MCC26 Replicate 3 (MCC26 cells (VN-MCC); follow-up screen, MCC26, replicate 3): 455.7

CCOC(=O)[C@H](CCc1ccccc1)N[C@@H](C)C(=O)N1CCC[C@H]1C(=O)O [Enalapril maleate]
WAGA_AUC (WAGA cells (VP-MCC); [1]): 389.514
NIH3T3_AUC (NIH-3T3 cells; [2]): 481.903
MKL1_AUC (MKL-1 cells (VP-MCC); [3]): 398.754
MKL2_AUC (MKL-2 cells (VP-MCC); [4]): 341.505
HACAT_AUC (HACAT cells; [5]): 461.773
CRL7250_AUC (CRL-7250 cells; [6]): 468.406
HEK293T_AUC (HEK293T cells; [7]): 479.159
UISO_AUC (UISO cells (VN-MCC); [8]): 510.45
MCC13_AUC (MCC13 cells (VN-MCC); [9]): 497.832
MCC26_AUC (MCC26 cells (VN-MCC); [10]): 486.615

Cc1nc2c([nH]1)c(=O)n(C)c(=O)n2Cc1ccco1 [Furafylline]
WAGA_AUC (WAGA cells (VP-MCC); [1]): 445.554
NIH3T3_AUC (NIH-3T3 cells; [2]): 485.732
MKL1_AUC (MKL-1 cells (VP-MCC); {}): 414.343
MKL2_AUC (MKL-2 cells (VP-MCC); [4]): 443.745
HACAT_AUC (HACAT cells; [5]): 476.414
CRL7250_AUC (CRL-7250 cells; [6]): 466.658
HEK293T_AUC (HEK293T cells; [7]): 497.799
UISO_AUC (UISO cells (VN-MCC); [8]): 447.137
MCC13_AUC (MCC13 cells (VN-MCC); [9]): 444.774
MCC26_AUC (MCC26 cells (VN-MCC); [10]): 399.611

CS(=O)(=O)Oc1ccc2c(NC(N)=O)c(C(=O)c3ccc(Cl)cc3Cl)oc2c1 [Lirimilast]
WAGA_AUC (WAGA cells (VP-MCC)): 295.464
NIH3T3_AUC (NIH-3T3 cells): 472.494
MKL1_AUC (MKL-1 cells (VP-MCC)): 416.805
MKL2_AUC (MKL-2 cells (VP-MCC)): 353.495
HACAT_AUC (HACAT cells): 475.167
CRL7250_AUC (CRL-7250 cells): 477.656
HEK293T_AUC (HEK293T cells): 473.552
UISO_AUC (UISO cells (VN-MCC)): 491.115
MCC13_AUC (MCC13 cells (VN-MCC)): 475.91
MCC26_AUC (MCC26 cells (VN-MCC)): 450.578
